Measured values: patent US10363230B2, “6-shogaol derivatives and activities thereof” (North Carolina Agricultural and Technical State University, priority 2017, dated 2019)
Values joined by “and” are separate entries in the source; they are usually repeats but may differ in a detail not shown here. Equal values may be shown once.

Test system: not listed separately
Assay: Cysteine conjugates in mouse urine after oral gavage (LC/MS)
Format: in vivo
Settings: oral gavage 200 mg/kg, urine collected in 24 h
Protocol: LC/MS analysis was carried out with a Thermo-Finnigan Spectra System, which consisted of an Accela high speed MS pump, an Accela refrigerated autosampler, and an LCQ Fleet ion trap mass detector (Thermo Electron, San Jose, Calif., United States of America) incorporated with an electrospray ionization (ESI) interface. A Gemini-NX C18 column (150 mm×4.6 mm i.d., 5 μm; Phenomenex, Torrance, Calif., United States of America) was used for separation at a flow rate of 0.3 mL/min. The column was eluted with 100% A (5% aqueous methanol with 0.2% formic acid) for 1 min, followed by linear increases in B (95% aqueous methanol with 0.2% formic acid) to 55% from 1 to 4 min, to 85% from 4 to 25 min, then to 100% B from 25 to 30 min, and then with 100% B from 30 to 35 min. The column was then re-equilibrated with 100% A for 5 min. The LC eluent was introduced into the ESI interface. The positive ion polarity mode was set for the ESI source with the voltage on the ESI interface maintained at approximately 4.6 kV. Nitrogen gas was used as the sheath gas and auxiliary gas. […] The mass range was measured from 100 to 800 m/z. […]
Enzymatic deconjugation of mouse urine was performed as described previously with slight modifications. […] The resulting suspension was centrifuged at 17,000 g for 5 min, and 10 μL of supernatant was analyzed directly by LC/MS.

Row | Structure (SMILES) | Cysteine conjugates (metabolites) detected in mouse urine
1 | CCCCC/C=C/C(=O)/C=C/c1ccc(O)c(OC)c1 [Compound 18] | conjugate 35 was predominantly present

Test system: Nrf2
Assay: Nrf2 reporter activity by Tg(gstp1:GFP) fluorescence in transgenic zebrafish embryos
Format: in vivo
Settings: olfactory epithelia, 24-hour treatment from 1 dpf to 2 dpf, 5 μM (FIG. 2 legends), ratio to DMSO control, mean ± SD, at least 10 embryos
Protocol: Zebrafish AB transgenic strains Tg(gstp1:GFP) were maintained in a Pentair Aquatic Ecosystem (Apopka, Fla., United States of America) fish housing unit with 14 h light/10 h dark cycle (see Tsujita, T., Li, L., Nakajima, H., Iwamoto, N., Nakajima-Takagi, Y., Ohashi, K., Kawakami, K., Kumagai, Y., Freeman, B. A., Yamamoto, M., and Kobayashi, M. (2011) “Nitro-fatty acids and cyclopentenone prostaglandins share strategies to activate the Keap1-Nrf2 system: a study using green fluorescent protein transgenic zebrafish.” Genes Cells 16, 46-57). The fish embryos were maintained at 28.5° C. in 0.3× Danieau's solution (19.3 mM NaCl, 0.23 mM KCl, 0.13 mM MgSO4, 0.2 mM Ca(NO3)2, 1.7 mM HEPES, pH 7.0) containing 30 μg/ml phenylthiourea (PTU) to inhibit pigmentation. Tg(gstp1:GFP) cross with AB wild-type strain fluorescence embryos were used for the experiment. Zebrafish embryos were washed, dechorionated and anaesthetized before observations, and fluorescence imaging for analysis.
Transgenic zebrafish embryos at 1 day-post-fertilization (dpf) were dechorionated and placed in Petri dishes containing different chemicals diluted in 0.3× Danieau's solution containing PTU. The chemical stock was dissolved in DMSO at 5 mM concentration.
An Olympus MVX10 Fluorescence Macroscope (Olympus, Center Valley, Pa., United States of America) equipped with a Hamamatsu C9300-221 high-speed digital CCD camera (Hamamatsu City, Japan) was used for fluorescence microscopy. Tg(gstp1:GFP) fluorescent embryos were anaesthetized in tricaine and imaged at 2 dpf. MetaMorph Basic software (Olympus, Center Valley, Pa., United States of America) was used for image acquisition and analysis.
The fluorescence intensity of the olfactory neural epithelia was quantitated using MetaMorph Basic software. In brief, GFP expression in the olfactory regions of Tg(gstp1:GFP) embryos treated with various chemicals was measured after 24-hour treatment from 1 dpf to 2 dpf. The GFP induction was detectable by fluorescence signal at the area of the olfactory epithelia in the anterior of the head region, the intensity was measured using an area of a circle of 60 pixel diameter of the fluorescence olfactory epithelia subtracted by a background non-fluorescence area next to the zebrafish embryo. Both the left and right olfactory epithelia were measured to give an average fluorescence value. The values are an average of measurements from at least 10 embryos.

Row | Structure (SMILES) | Ratio/CTL, Tg(gstp1:GFP) fluorescence signal (times higher than vehicle)
2 | CCCCC/C=C/C(=O)/C=C/c1cccc(C(F)(F)F)c1 [Compound 22] | 1.28 and 1.28 ± 0.10
3 | CCCCCC(CC(=O)CCc1ccc(O)c(OC)c1)OC (stereo not shown) [Compound 10] | 0.96 ± 0.24
4 | CCCCCCCCC/C=C/C(=O)CCc1ccc(O)c(OC)c1 [Compound 3, reference compound] | 1.53 ± 0.53
5 | CCCCC/C=C/C(=O)/C=C/c1cc(OC)c(O)c(C(F)(F)F)c1 [Compound 21] | 2.18 and 2.18 ± 0.53
6 | CCCCCC=CC(O)CCc1ccc(O)c(OC)c1 (stereo not shown) [Compound 4] | 1.13 and 1.13 ± 0.21
7 | CCCCCCCCC[C@H](O)CC(=O)CCc1ccc(O)c(OC)c1 [Compound 13, reference compound] | 1.29 and 1.29 ± 0.40
8 | CCCCCCCC(=O)CCc1ccc(O)c(OC)c1 [Compound 5] | 1.27 and 1.27 ± 0.29
9 | CCCCCC(CC(O)CCc1ccc(O)c(OC)c1)SCC(N)C(=O)O (stereo not shown) [Compound 15] | 1.08 ± 0.65
10 | CCCCC/C=C/C(=O)/C=C/c1cccc(C(F)(F)F)c1F [Compound 23] | 1.63 and 1.63 ± 0.17
11 | CCCCCCCC(=O)/C=C/c1ccc(O)c(OC)c1 [Compound 19] | 3.29 and 3.29 ± 0.35
12 | CCCCCC(CC(=O)CCc1ccc(O)c(OC)c1)SCC(NC(C)=O)C(=O)O (stereo not shown) [Compound 7] | 1.04 ± 0.05
13 | CCCCCCC/C=C/C(=O)CCc1ccc(O)c(OC)c1 [Compound 2, reference compound] | 1.67 ± 0.55
14 | CCCCCC(CC(O)CCc1ccc(O)c(OC)c1)SCC(NC(C)=O)C(=O)O (stereo not shown) [Compound 16] | 0.78 ± 0.12
15 | CCCCC[C@H](O)CC(=O)CCc1ccc(O)c(OC)c1 [Compound 11, [6]-gingerol, reference compound] | 1.87 and 1.87 ± 0.51
16 | CCCCCC(CC(=O)CCc1ccc(O)c(OC)c1)SC (stereo not shown) [Compound 8] | 1.16 ± 0.47
17 | CCCCC/C=C/C(=O)/C=C/c1ccccc1C(F)(F)F [Compound 24] | 1.55 and 1.55 ± 0.67
18 | CCCCCC(CC(=O)CCc1ccc(O)c(OC)c1)SCC(N)C(=O)O (stereo not shown) [Compound 6] | 1.06 ± 0.20
19 | CCCCCC(CC(O)CCc1ccc(O)c(OC)c1)SC (stereo not shown) [Compound 17] | 0.72 ± 0.14
20 | CCCCC/C=C/C(=O)CCc1ccc(O)c(OC)c1 [Compound 1, [6]-shogaol, reference compound] | 2.40 ± 0.54
21 | CCCCC/C=C/C(=O)/C=C/c1cc(O)c(O)c(OC)c1 [Compound 20] | 1.26 and 1.26 ± 0.14
22 | CCCCCCC[C@H](O)CC(=O)CCc1ccc(O)c(OC)c1 [Compound 12, reference compound] | 1.65 and 1.65 ± 0.29

Same assay, conditions: olfactory epithelia, 24-hour treatment from 1 dpf to 2 dpf, 5 μM (FIG. 2 legends), ratio to DMSO control, mean ± SD, at least 10 embryos; listed as 6S

Row | Structure (SMILES) | Ratio/CTL, Tg(gstp1:GFP) fluorescence signal (times higher than vehicle)
23 | CCCCC/C=C/C(=O)CCc1ccc(O)c(OC)c1 [Compound 1, [6]-shogaol, reference compound] | 2.40

Same assay, conditions: olfactory epithelia, 24-hour treatment from 1 dpf to 2 dpf, 5 μM (FIG. 2 legends), ratio to DMSO control, mean ± SD, at least 10 embryos; listed as 8S

Row | Structure (SMILES) | Ratio/CTL, Tg(gstp1:GFP) fluorescence signal (times higher than vehicle)
24 | CCCCCCC/C=C/C(=O)CCc1ccc(O)c(OC)c1 [Compound 2, reference compound] | 1.67

Same assay, conditions: olfactory epithelia, 24-hour treatment from 1 dpf to 2 dpf, 5 μM (FIG. 2 legends), ratio to DMSO control, mean ± SD, at least 10 embryos; listed as 10S

Row | Structure (SMILES) | Ratio/CTL, Tg(gstp1:GFP) fluorescence signal (times higher than vehicle)
25 | CCCCCCCCC/C=C/C(=O)CCc1ccc(O)c(OC)c1 [Compound 3, reference compound] | 1.53

Test system: not listed separately
Assay: Biotransformation of xenobiotics in zebrafish embryos (LC/MS)
Format: in vivo
Settings: 5 μM in incubation medium, 8 hpf to 24 hpf
Protocol: Fifty zebrafish embryos at the 8 hour-post-fertilization (hpf) stage were incubated at 28.5° C. in 0.3× Danieau's solution (19.3 mM NaCl, 0.23 mM KCl, 0.13 mM MgSO4, 0.2 mM Ca(NO3)2, 1.7 mM HEPES, pH 7.0) with or without 5 μM 18 and 25-27, respectively. At 24 hpf, embryos were dechorionated manually and the chorions were carefully removed one by one from the culture medium. The zebrafish embryos were harvested and kept at −80° C. till analyzed by LC/MS.
200 μL Sodium acetate buffer solution (pH 5.0) was added to 50 zebrafish embryos. Samples were homogenized for 90 s by an Omni Bead Ruptor Homogenizer (Kennesaw, Ga., United States of America). 10 μL 10% ascorbic acid and 300 μL sodium acetate buffer were added to the homogenates. The mixture was incubated in the presence of β-glucuronidase (250 U) and sulfatase (3 U) at 37° C. for 45 min, and then 600 μL MeOH with 1% acetic acid was added. The resulting mixture was vortexed for 30 s and then centrifuged at 17000 g for 10 min. The supernatant was removed and evaporated under a gentle stream of nitrogen. The residue was reconstituted in 150 μL 90% MeOH with 0.2% acetic acid (AA), and 10 μL was analyzed directly by LC/MS.
LC/MS analysis was carried out with a Thermo-Finnigan Spectra System, which consisted of an Accela high speed MS pump, an Accela refrigerated autosampler, and an LCQ Fleet ion trap mass detector (Thermo Electron, San Jose, Calif., United States of America) incorporated with an electrospray ionization (ESI) interface. A Gemini-NX C18 column (150 mm×4.6 mm i.d., 5 μm; Phenomenex, Torrance, Calif., United States of America) was used for separation at a flow rate of 0.3 mL/min. The column was eluted with 100% A (5% aqueous methanol with 0.2% formic acid) for 1 min, followed by linear increases in B (95% aqueous methanol with 0.2% formic acid) to 55% from 1 to 4 min, to 85% from 4 to 25 min, then to 100% B from 25 to 30 min, and then with 100% B from 30 to 35 min. The column was then re-equilibrated with 100% A for 5 min. The LC eluent was introduced into the ESI interface. The positive ion polarity mode was set for the ESI source with the voltage on the ESI interface maintained at approximately 4.6 kV. Nitrogen gas was used as the sheath gas and auxiliary gas. Optimized source parameters, including capillary temperature (260° C.), sheath gas flow rate (31 arbitrary units), auxiliary gas flow rate (16 units), tube lens (34 V), and capillary voltage 9 V, were tuned using authentic samples. The collision-induced dissociation (CID) was conducted with an isolation width 2 Da and normalized collision energy of 35 for MS^2. The mass range was measured from 100 to 800 m/z. Data acquisition was performed with Xcalibur version 2.0 (Thermo Electron, San Jose, Calif., United States of America).

Row | Structure (SMILES) | Cysteine conjugates (metabolites) detected in zebrafish embryos
26 | CCCCCCCC(=O)CCc1ccc(O)c(O)c1 [Compound 25] | conjugates 37 and 37b were exclusively identified
27 | CCCCC/C=C/C(=O)/C=C/c1ccc(O)c(O)c1 [Compound 26] | Three conjugates 37, 37b, and 38
28 | CCCCC/C=C/C(=O)/C=C/c1ccc(O)c(OC)c1 [Compound 18] | conjugate 35 was predominantly present
